# System: MV-4-11 cells
# Assay: Gene expression microarray analysis (Affymetrix PrimeView) and GSEA
# Assay type: cell-based, human
# Parameters: RFU PODN (11730768_x_at) / Fold change /veh PODN (11730768_x_at) / RFU LINC00158 (11744669_a_at) / Fold change /veh LINC00158 (11744669_a_at) / RFU DUSP10 (11751237_a_at) / Fold change /veh DUSP10 (11751237_a_at) / RFU ID3 (11757404_x_at) / Fold change /veh ID3 (11757404_x_at) / RFU PLEKHG5 (11737974_s_at) / Fold change /veh PLEKHG5 (11737974_s_at) / RFU LRRC4B (11730491_at) / Fold change /veh LRRC4B (11730491_at) / RFU GIMAP4 (11747438_a_at) / Fold change /veh GIMAP4 (11747438_a_at) / RFU KRT8 (11758183_x_at) / Fold change /veh KRT8 (11758183_x_at) / RFU CNN1 (11734310_a_at) / Fold change /veh CNN1 (11734310_a_at) / RFU VPS37D (11726825_at) / Fold change /veh VPS37D (11726825_at) / RFU C10orf10 (11716522_x_at) / Fold change /veh C10orf10 (11716522_x_at) / RFU KIR2DL2 /// KIR2DL4 /// KIR2DL5A /// KIR2DL5B /// KIR2DS1 /// KIR2DS2 /// KIR2DS3 /// KIR2DS4 /// KIR3DL3 /// KIR3DL3 /// KIR3DS1 (11738374_at) / Fold change /veh KIR2DL2 /// KIR2DL4 /// KIR2DL5A /// KIR2DL5B /// KIR2DS1 /// KIR2DS2 /// KIR2DS3 /// KIR2DS4 /// KIR3DL3 /// KIR3DL3 /// KIR3DS1 (11738374_at) / RFU C1QL1 (11718748_at) / Fold change /veh C1QL1 (11718748_at) / RFU TMPRSS4 (11747572_a_at) / Fold change /veh TMPRSS4 (11747572_a_at) / RFU HAMP (11756126_x_at) / Fold change /veh HAMP (11756126_x_at) / RFU RNFT2 (11725882_a_at) / Fold change /veh RNFT2 (11725882_a_at) / RFU NR4A2 (11747474_a_at) / Fold change /veh NR4A2 (11747474_a_at) / RFU ABCC12 (11746883_a_at) / Fold change /veh ABCC12 (11746883_a_at) / RFU TMEM136 (11760407_x_at) / Fold change /veh TMEM136 (11760407_x_at) / RFU CLDN22 /// WWC2 (11732394_at) / Fold change /veh CLDN22 /// WWC2 (11732394_at) / RFU HLA-DPB1 (11760878_x_at) / Fold change /veh HLA-DPB1 (11760878_x_at) / RFU SPINT1 (11716480_a_at) / Fold change /veh SPINT1 (11716480_a_at) / RFU GAP43 (11754022_s_at) / Fold change /veh GAP43 (11754022_s_at) / RFU A4GNT (11735810_at) / Fold change /veh A4GNT (11735810_at) / RFU PRB3 (11715151_x_at) / Fold change /veh PRB3 (11715151_x_at) / RFU TUBB4B (11761932_at) / Fold change /veh TUBB4B (11761932_at) / RFU CAPN14 (11732068_a_at) / Fold change /veh CAPN14 (11732068_a_at) / RFU TMCC2 (11721928_a_at) / Fold change /veh TMCC2 (11721928_a_at) / RFU IRGQ (11745062_a_at) / Fold change /veh IRGQ (11745062_a_at) / RFU FAM174B (11720279_a_at) / Fold change /veh FAM174B (11720279_a_at) / RFU TMPRSS4 (11748680_a_at) / Fold change /veh TMPRSS4 (11748680_a_at) / RFU FAM212B (11763350_a_at) / Fold change /veh FAM212B (11763350_a_at) / RFU PLEKHG5 (11743358_a_at) / Fold change /veh PLEKHG5 (11743358_a_at) / RFU ZSCAN30 (11745921_a_at) / Fold change /veh ZSCAN30 (11745921_a_at) / RFU CMKLR1 (11741424_a_at) / Fold change /veh CMKLR1 (11741424_a_at) / RFU LOC101060620 /// MAPK8IP1 (11723275_at) / Fold change /veh LOC101060620 /// MAPK8IP1 (11723275_at) / RFU SPTSSB (11747773_x_at) / Fold change /veh SPTSSB (11747773_x_at) / RFU PRSS12 (11739890_at) / Fold change /veh PRSS12 (11739890_at) / RFU BIN1 (11741810_x_at) / Fold change /veh BIN1 (11741810_x_at) / RFU WNT11 (11732464_a_at) / Fold change /veh WNT11 (11732464_a_at) / RFU C10orf10 (11716521_a_at) / Fold change /veh C10orf10 (11716521_a_at) / RFU C5orf56 (11738089_at) / Fold change /veh C5orf56 (11738089_at) / RFU CYB561 (11721691_x_at) / Fold change /veh CYB561 (11721691_x_at) / RFU ANKRD19P (11752326_a_at) / Fold change /veh ANKRD19P (11752326_a_at) / RFU OR2T12 /// OR2T33 /// OR2T8 (11738714_s_at) / Fold change /veh OR2T12 /// OR2T33 /// OR2T8 (11738714_s_at) / RFU VCAN (11748164_a_at) / Fold change /veh VCAN (11748164_a_at) / RFU JSRP1 (11732532_at) / Fold change /veh JSRP1 (11732532_at) / RFU KRTAP10-11 (11738290_x_at) / Fold change /veh KRTAP10-11 (11738290_x_at) / RFU MYO3A (11730013_a_at) / Fold change /veh MYO3A (11730013_a_at) / RFU EBF3 (11725865_a_at) / Fold change /veh EBF3 (11725865_a_at) / RFU CAMK2N1 (11719241_x_at) / Fold change /veh CAMK2N1 (11719241_x_at) / RFU C5orf56 (11738088_a_at) / Fold change /veh C5orf56 (11738088_a_at) / RFU OLFML3 (11715873_a_at) / Fold change /veh OLFML3 (11715873_a_at) / RFU LOC100653217 /// NTM (11731650_a_at) / Fold change /veh LOC100653217 /// NTM (11731650_a_at) / RFU MAPK11 (11762145_a_at) / Fold change /veh MAPK11 (11762145_a_at) / RFU FIZ1 (11724087_x_at) / Fold change /veh FIZ1 (11724087_x_at) / RFU OASL (11726364_x_at) / Fold change /veh OASL (11726364_x_at) / RFU SOX15 (11748057_x_at) / Fold change /veh SOX15 (11748057_x_at) / RFU CD79A (11719716_a_at) / Fold change /veh CD79A (11719716_a_at) / RFU HIST1H1D (11736915_at) / Fold change /veh HIST1H1D (11736915_at) / RFU CASKIN2 (11723855_a_at) / Fold change /veh CASKIN2 (11723855_a_at) / RFU LOC730098 (11760151_x_at) / Fold change /veh LOC730098 (11760151_x_at) / RFU OR4N2 (11742367_at) / Fold change /veh OR4N2 (11742367_at) / RFU PRRT2 (11749266_a_at) / Fold change /veh PRRT2 (11749266_a_at) / RFU SNX32 (11753110_a_at) / Fold change /veh SNX32 (11753110_a_at) / RFU CDHR5 (11726645_a_at) / Fold change /veh CDHR5 (11726645_a_at) / RFU RCAN1 (11760418_a_at) / Fold change /veh RCAN1 (11760418_a_at) / RFU FAM167A (11723789_a_at) / Fold change /veh FAM167A (11723789_a_at) / RFU FAM26E (11764081_at) / Fold change /veh FAM26E (11764081_at) / RFU ISYNA1 (11749810_s_at) / Fold change /veh ISYNA1 (11749810_s_at) / RFU ACY1 (11761880_at) / Fold change /veh ACY1 (11761880_at) / RFU 11764098_at / Fold change /veh 11764098_at / RFU SAMD14 (11745864_x_at) / Fold change /veh SAMD14 (11745864_x_at) / RFU NPB (11741838_a_at) / Fold change /veh NPB (11741838_a_at) / RFU TMPRSS6 (11731388_a_at) / Fold change /veh TMPRSS6 (11731388_a_at) / RFU KRTAP10-2 (11738614_at) / Fold change /veh KRTAP10-2 (11738614_at) / RFU ARHGAP8 /// PRR5-ARHGAP8 (11727945_x_at) / Fold change /veh ARHGAP8 /// PRR5-ARHGAP8 (11727945_x_at) / RFU KRTAP5-7 /// NADSYN1 (11734609_at) / Fold change /veh KRTAP5-7 /// NADSYN1 (11734609_at) / RFU RASL12 (11751679_a_at) / Fold change /veh RASL12 (11751679_a_at) / RFU CDKN2B (11736163_a_at) / Fold change /veh CDKN2B (11736163_a_at) / RFU PRF1 (11729649_at) / Fold change /veh PRF1 (11729649_at) / RFU, ZNF638 /// ZNF638-IT1 / Fold change vs veh, ZNF638 /// ZNF638-IT1 / RFU, PANK3 / Fold change vs veh, PANK3 / RFU, SH3YL1 / Fold change vs veh, SH3YL1 / RFU, ZEB2 / Fold change vs veh, ZEB2 / RFU, NRIP1 / Fold change vs veh, NRIP1 / RFU, PTTG1IP / Fold change vs veh, PTTG1IP / RFU, CAPN2 / Fold change vs veh, CAPN2 / RFU, MED14 / Fold change vs veh, MED14 / RFU, SNORA58 / Fold change vs veh, SNORA58 / RFU, C1orf63 / Fold change vs veh, C1orf63 / RFU, LRRFIP1 / Fold change vs veh, LRRFIP1 / RFU, NDUFAF7 / Fold change vs veh, NDUFAF7 / RFU, SLC12A2 / Fold change vs veh, SLC12A2 / RFU, IBTK / Fold change vs veh, IBTK / RFU, ESF1 / Fold change vs veh, ESF1 / Fold change vs veh, TMEM50B / RFU, TAOK1 / Fold change vs veh, TAOK1 / RFU, ACBD3 / Fold change vs veh, ACBD3 / RFU, TMA16 / Fold change vs veh, TMA16 / RFU, RWDD3 / Fold change vs veh, RWDD3 / RFU, BCAT1 / Fold change vs veh, BCAT1 / RFU, EDEM3 / Fold change vs veh, EDEM3 / RFU, TMEM33 / Fold change vs veh, TMEM33 / RFU, WDR75 / Fold change vs veh, WDR75 / RFU, AHCTF1 / Fold change vs veh, AHCTF1 / RFU, TFRC / Fold change vs veh, TFRC / RFU, ZDHHC17 / Fold change vs veh, ZDHHC17 / RFU, NOM1 / Fold change vs veh, NOM1 / RFU, ARL8B / Fold change vs veh, ARL8B / RFU, ZBTB11 / Fold change vs veh, ZBTB11 / RFU, TAMM41 / Fold change vs veh, TAMM41 / RFU, KIAA1704 /// LOC100996395 / Fold change vs veh, KIAA1704 /// LOC100996395 / RFU, ING1 / Fold change vs veh, ING1 / RFU, TRMT61B / Fold change vs veh, TRMT61B / RFU, FUBP3 / Fold change vs veh, FUBP3 / RFU, TP53 / Fold change vs veh, TP53 / RFU, TNKS2 / Fold change vs veh, TNKS2 / RFU, ZFP14 / Fold change vs veh, ZFP14 / RFU, ACTR2 / Fold change vs veh, ACTR2 / RFU, PPP3R1 / Fold change vs veh, PPP3R1 / RFU, PIK3R1 / Fold change vs veh, PIK3R1 / RFU, HNRNPA1 / Fold change vs veh, HNRNPA1 / RFU, RNF170 / Fold change vs veh, RNF170 / RFU, ZNF28 / Fold change vs veh, ZNF28 / RFU, RNGTT / Fold change vs veh, RNGTT / RFU, OGT / Fold change vs veh, OGT / RFU, BRD1 / Fold change vs veh, BRD1 / RFU, MARS / Fold change vs veh, MARS / RFU, ZNF655 / Fold change vs veh, ZNF655 / RFU, FAHD1 / Fold change vs veh, FAHD1 / RFU, BDP1 / Fold change vs veh, BDP1 / RFU, LRRCC1 / Fold change vs veh, LRRCC1 / RFU, ARID1A / Fold change vs veh, ARID1A / RFU, ZNF146 / Fold change vs veh, ZNF146 / RFU, ZNF330 / Fold change vs veh, ZNF330 / RFU, GPN3 / Fold change vs veh, GPN3 / RFU, C9orf123 / Fold change vs veh, C9orf123 / RFU, N4BP2L2 / Fold change vs veh, N4BP2L2 / RFU, ARFIP1 / Fold change vs veh, ARFIP1 / RFU, FAM179B / Fold change vs veh, FAM179B / RFU, BCL10 / Fold change vs veh, BCL10 / RFU, UHRF1BP1L / Fold change vs veh, UHRF1BP1L / RFU, BET1 / Fold change vs veh, BET1 / RFU, CNOT2 / Fold change vs veh, CNOT2 / RFU, ZNF268 / Fold change vs veh, ZNF268 / Fold change vs veh, ZNF507 / RFU, DGCR2 / Fold change vs veh, DGCR2 / RFU, WDSUB1 / Fold change vs veh, WDSUB1 / Fold change vs veh, HSP90B1 /// MIR3652 / RFU, ADSS / Fold change vs veh, ADSS / RFU, GK / Fold change vs veh, GK / RFU, ZNF148 / Fold change vs veh, ZNF148 / RFU, TAF9 / Fold change vs veh, TAF9 / RFU, SLC1A5 / Fold change vs veh, SLC1A5 / RFU, SLMO2 / Fold change vs veh, SLMO2 / RFU, ABCC4 / Fold change vs veh, ABCC4 / RFU, LOC101060439 /// RAP1B / Fold change vs veh, LOC101060439 /// RAP1B / RFU, RFX7 / Fold change vs veh, RFX7 / RFU, GTPBP10 / Fold change vs veh, GTPBP10 / RFU, CNEP1R1 / Fold change vs veh, CNEP1R1 / RFU, BIVM-ERCC5 /// ERCC5 / Fold change vs veh, BIVM-ERCC5 /// ERCC5 / RFU, ILF3 / Fold change vs veh, ILF3 / RFU 11762660_at / Fold change /veh 11762660_at / RFU VCAN (11757783_s_at) / Fold change /veh VCAN (11757783_s_at) / RFU DDX43 (11728927_at) / Fold change /veh DDX43 (11728927_at) / RFU KRT8 (11758188_x_at) / Fold change /veh KRT8 (11758188_x_at) / RFU NKD1 (11759106_at) / Fold change /veh NKD1 (11759106_at) / RFU SRD5A1 (11742802_a_at) / Fold change /veh SRD5A1 (11742802_a_at) / RFU TPSAB1 /// TPSB2 (11721975_s_at) / Fold change /veh TPSAB1 /// TPSB2 (11721975_s_at) / RFU GSTM3 (11746129_a_at) / Fold change /veh GSTM3 (11746129_a_at) / RFU IL23R (11737362_x_at) / Fold change /veh IL23R (11737362_x_at) / RFU TMEM51 (11727254_a_at) / Fold change /veh TMEM51 (11727254_a_at) / RFU PIWIL2 (11732686_x_at) / Fold change /veh PIWIL2 (11732686_x_at) / RFU ORM1 (11744905_x_at) / Fold change /veh ORM1 (11744905_x_at) / RFU CCDC152 (11743942_at) / Fold change /veh CCDC152 (11743942_at) / RFU ECM1 (11717891_a_at) / Fold change /veh ECM1 (11717891_a_at) / RFU IL23R (11748794_a_at) / Fold change /veh IL23R (11748794_a_at) / RFU TNFAIP8L3 (11732012_x_at) / Fold change /veh TNFAIP8L3 (11732012_x_at) / RFU MBOAT4 (11741988_at) / Fold change /veh MBOAT4 (11741988_at) / RFU 11764193_at / Fold change /veh 11764193_at / RFU TMEM53 (11763286_at) / Fold change /veh TMEM53 (11763286_at) / RFU MAGEB2 (11727129_at) / Fold change /veh MAGEB2 (11727129_at) / RFU TMEM200A (11744735_a_at) / Fold change /veh TMEM200A (11744735_a_at) / RFU CCDC152 (11751479_a_at) / Fold change /veh CCDC152 (11751479_a_at) / RFU FAM211A (11726209_a_at) / Fold change /veh FAM211A (11726209_a_at) / RFU RGS16 (11746705_a_at) / Fold change /veh RGS16 (11746705_a_at) / RFU VCAN (11755009_s_at) / Fold change /veh VCAN (11755009_s_at) / RFU RHOB (11743442_s_at) / Fold change /veh RHOB (11743442_s_at) / RFU RGS16 (11720943_a_at) / Fold change /veh RGS16 (11720943_a_at) / RFU RGS16 (11720944_at) / Fold change /veh RGS16 (11720944_at) / RFU, VPS4B / Fold change vs veh, VPS4B / RFU, CREB1 / Fold change vs veh, CREB1 / RFU, DNAJC13 / Fold change vs veh, DNAJC13 / RFU, GNAQ / Fold change vs veh, GNAQ / RFU, CDK5R1 / Fold change vs veh, CDK5R1 / RFU, ZRANB3 / Fold change vs veh, ZRANB3 / RFU, CUL4A / Fold change vs veh, CUL4A / RFU, CCNY / Fold change vs veh, CCNY / RFU, UFL1 / Fold change vs veh, UFL1 / RFU, COG3 / Fold change vs veh, COG3 / RFU, DIAPH2 / Fold change vs veh, DIAPH2 / RFU, SKA2 / Fold change vs veh, SKA2 / RFU, AFF3 / Fold change vs veh, AFF3 / RFU, LMF1 / Fold change vs veh, LMF1 / RFU, IPO11 / Fold change vs veh, IPO11 / RFU, DFFB / Fold change vs veh, DFFB / RFU, FOXP1 / Fold change vs veh, FOXP1 / RFU, CARD8 / Fold change vs veh, CARD8 / RFU, STRN3 / Fold change vs veh, STRN3 / RFU, ADK / Fold change vs veh, ADK / RFU, RASSF2 / Fold change vs veh, RASSF2 / RFU, WIPF1 / Fold change vs veh, WIPF1 / RFU, LARP1B / Fold change vs veh, LARP1B / RFU, RASA1 / Fold change vs veh, RASA1 / RFU, RB1 / Fold change vs veh, RB1 / RFU, PPFIA1 / Fold change vs veh, PPFIA1 / RFU, MAT2A / Fold change vs veh, MAT2A / RFU, CCT5 / Fold change vs veh, CCT5 / RFU, WDR92 / Fold change vs veh, WDR92 / RFU, CUX1 / Fold change vs veh, CUX1 / RFU, TTC7A / Fold change vs veh, TTC7A / RFU, TMEM135 / Fold change vs veh, TMEM135 / RFU, DEPTOR / Fold change vs veh, DEPTOR / RFU, CPM / Fold change vs veh, CPM / RFU, DNAJB6 / Fold change vs veh, DNAJB6 / RFU, CACNA2D3 / Fold change vs veh, CACNA2D3 / RFU, DTX4 / Fold change vs veh, DTX4 / RFU, TFCP2 / Fold change vs veh, TFCP2 / RFU, GMCL1 /// GMCL1P1 / Fold change vs veh, GMCL1 /// GMCL1P1 / RFU, AEBP2 / Fold change vs veh, AEBP2 / RFU, SNHG1 /// SNORD22 /// SNORD25 /// SNORD26 /// SNORD27 /// SNORD28 /// SNORD29 /// SNORD31 / Fold change vs veh, SNHG1 /// SNORD22 /// SNORD25 /// SNORD26 /// SNORD27 /// SNORD28 /// SNORD29 /// SNORD31 / Fold change (Aza/veh), C12orf56 (ProbeSet 11735607_a_at) / Fold change (ACY-1035/veh), C12orf56 (ProbeSet 11735607_a_at) / Fold change (Aza/veh), FGFR1OP (ProbeSet 11751329_s_at) / Fold change (ACY-1035/veh), FGFR1OP (ProbeSet 11751329_s_at) / Fold change (Aza/veh), VPS36 (ProbeSet 11739960_a_at) / Fold change (ACY-1035/veh), VPS36 (ProbeSet 11739960_a_at) / RFU SYPL1 (11715823_x_at) / Fold change /veh SYPL1 (11715823_x_at) / RFU IGFBP7 (11715501_s_at) / Fold change /veh IGFBP7 (11715501_s_at) / RFU REEP3 (11722064_at) / Fold change /veh REEP3 (11722064_at) / RFU IGLL1 (11728026_x_at) / Fold change /veh IGLL1 (11728026_x_at): dose or concentration left out as unconfirmed
# Conditions: ProbeSet 11723141_at; LIST B
compound,measurement,value
Nc1ccc(-c2cccs2)cc1NC(=O)c1ccc2c(c1)cc(C1CC1)n2CCN1CCOCC1 [ACY-1035],"Fold change vs veh, ZBTB11",0.84
